Experiments:
Type in all cases: in vivo
[1] = tested on: Frankliniella occidentalis; experiment: Test Example 1: water trap attraction test, single compounds; set-up: key: (captured treated − captured untreated)×100/total released per cage; details: single compound, 30 adult females per cage, 24 hours
Procedure: (§1) Hexane solutions were prepared respectively containing single compounds selected from among p-anisaldehyde, benzaldehyde, ethyl nicotinate, geraniol, linalool, nerol, citronellol, methyl anthranilate, methyl benzoate, o-aminoacetophenone, o-anisidine, methyl m-aminobenzoate, methyl o-toluate and α-hexylcinnamaldehyde. Each single compound was prepared at five concentration levels consisting of 0.01 μg, 0.1 μg, 1 μg, 10 μg and 100 μg. After impregnating pieces of filter paper with these solutions, the filter paper was affixed on a plastic vial cap using adhesive tape and set up in a water trap containing a surfactant. After releasing 30 adult female Frankliniella occidentalis into an acrylic cage, the water trap containing the above-mentioned attractants was set up in the cage. 24 hours later, the number of Frankliniella occidentalis captured in the water trap was counted and the attraction rate was calculated using Equation 1.
(§2) Attraction rate=(No. of captured individuals in treatment−no. of captured individuals in untreatment)*100/(total no. released per cage) (1)

[2] = tested on: Frankliniella occidentalis; experiment: Test Example 2: water trap attraction test, mixtures of two compounds; set-up: key: % of released insects: (treated catch − untreated catch)×100/total released; details: single compound for comparison, 24 hours
Procedure: as §1, with “Mixed hexane” for “Hexane”, “two types of” for “single”, “Each single compound was prepared at five concentration levels consisting of 0.01 μg, 0.1 μg, 1 μg, 10 μg and 100 μg.” left out, “the mixed solution of the two types of compounds,” for “these solutions,”, “above-mentioned mixed” for “above-mentioned”, “1. In addition, hexane solutions were also prepared containing each of the single compounds at their respective prescribed concentrations for the sake of comparison, and those solutions were tested in the same manner.” for “1.”
as §2
(§3) In general, a synergistic attracting effect expected when mixing two given types of attractive compounds and using for treatment is determined from Colby's equation indicated with the following Equation 2: […]
(§4) X: attraction rate when treated with attractive compound A;
(§5) Y: attraction rate when treated with attractive compound B; and
(§6) E: attraction rate expected when treating by mixing attractive compound A and attractive compound B (expected attraction rate value).

[3] = tested on: Frankliniella occidentalis; experiment: Test Example 3: water trap attraction test, mixtures of three compounds; set-up: scale not given here; details: single compound for comparison, 24 hours
Procedure: Mixed hexane solutions were prepared containing three types of compounds selected from among p-anisaldehyde, benzaldehyde, ethyl nicotinate, geraniol, linalool, nerol, citronellol, methyl anthranilate, methyl benzoate, o-aminoacetophenone, o-anisidine, methyl m-aminobenzoate, methyl o-toluate and α-hexylcinnamaldehyde. […] After impregnating pieces of filter paper with the mixed solution of the three types of compounds, the filter paper was affixed on a plastic vial cap using adhesive tape and set up in a pan trap containing a surfactant. After releasing 30 adult female Frankliniella occidentalis into an acrylic cage, the water trap containing the above-mentioned mixed attractants was set up in the cage. 24 hours later, the number of Frankliniella occidentalis captured in the water trap was counted and the attraction rate was calculated using Equation 1. In addition, hexane solutions were also prepared containing each of the single agents at their respective prescribed concentrations for the sake of comparison, and those solutions were tested in the same manner.
In general, a synergistic attracting effect expected when mixing three given types of attractive compounds and using for treatment is determined from Colby's equation indicated with the following Equation 3: […]
as §4
(§7) Y: attraction rate when treated with attractive compound B;
Z: attraction rate when treated with attractive compound C; and
E: attraction rate expected when treating by mixing attractive compound A, attractive compound B and attractive compound C (expected attraction rate value).

Tetranychus urticae = experiment: Test Example 4: plastic tube filter paper contact test, mixtures of two compounds; set-up: key: (treated − untreated contacts) ×100 / repetitions, %; details: weight of each compound 1 μg; contact with filter paper within 10 minutes
Procedure: Mixed hexane solutions were prepared respectively containing two types of compounds selected from among p-anisaldehyde, benzaldehyde, ethyl nicotinate, geraniol, linalool, nerol, citronellol, methyl anthranilate, methyl benzoate, o-aminoacetophenone, o-anisidine, methyl m-aminobenzoate, methyl o-toluate and α-hexylcinnamaldehyde. The weight of each compound was adjusted to 1 μg. After impregnating pieces of filter paper (3 mm^2) with the mixed solution of the two types of compounds, the filter paper was set up at the head of a plastic tube (length of 9 cm, 5 mm^2 in diameters). An adult Tetranychus urticae was released into the end of plastic tube. Among 10 minutes, the number of T. urticae contacted the filter paper was counted and the attraction rate was calculated using Equation 1. In addition, hexane solutions were also prepared containing each of the single compounds at their respective prescribed concentrations for the sake of comparison, and those solutions were tested in the same manner.
Attraction rate=(No. of contacted individuals in treatment−no. of contacted individuals in untreatment)*100/(repetition) (1)
as §3, §4, §7, §6

Drosophila melanogaster = experiment: Test Example 5: water trap attraction test, mixtures of two compounds; set-up: key: % = (captured treated − captured untreated)×100/total released; details: weight of each compound 100 μg; 20 adults per cage; 24 hours
Procedure: Mixed hexane solutions were prepared respectively containing two types of compounds selected from among p-anisaldehyde, benzaldehyde, ethyl nicotinate, geraniol, linalool, nerol, citronellol, methyl anthranilate, methyl benzoate, o-aminoacetophenone, o-anisidine, methyl m-aminobenzoate, methyl o-toluate and α-hexylcinnamaldehyde. The weight of each compound was adjusted to 100 μg. After impregnating pieces of filter paper with the mixed solution of the two types of compounds, the filter paper was affixed on a plastic vial cap using adhesive tape and set up in a water trap containing a surfactant. After releasing 20 adult Drosophila melanogaster into an acrylic cage, the water trap containing the above-mentioned mixed attractants was set up in the cage. 24 hours later, the number of D. melanogaster captured in the water trap was counted and the attraction rate was calculated using Equation 1. In addition, hexane solutions were also prepared containing each of the single compounds at their respective prescribed concentrations for the sake of comparison, and those solutions were tested in the same manner.
as §2, §3, §4, §5, §6

Thrips tabaci = experiment: Test Example 6: yellow sticky trap attraction test, mixtures of two compounds; set-up: key: % = (captured treated − captured untreated)×100/total released per cup; details: weight of each compound 1 μg; 10 adults per cup; 24 hours
Procedure: Mixed hexane solutions were prepared respectively containing two types of compounds selected from among p-anisaldehyde, benzaldehyde, ethyl nicotinate, geraniol, linalool, nerol, citronellol, methyl anthranilate, methyl benzoate, o-aminoacetophenone, o-anisidine, methyl m-aminobenzoate, methyl o-toluate and α-hexylcinnamaldehyde. The weight of each compound was adjusted to 1 μg. After impregnating pieces of filter paper (3 mm^2) with the mixed solution of the two types of compounds, the filter paper was affixed on a yellow sticky trap (1 cm^2). After releasing 10 adult Thrips tabaci into a plastic cup (150 ml), the yellow sticky trap containing the above-mentioned mixed attractants was set up at the side of the plastic cup. 24 hours later, the number of T. tabaci captured in the yellow sticky trap was counted and the attraction rate was calculated using Equation 1. In addition, hexane solutions were also prepared containing each of the single compounds at their respective prescribed concentrations for the sake of comparison, and those solutions were tested in the same manner.
Attraction rate=(No. of captured individuals in treatment−no. of captured individuals in untreatment)*100/(total no. released per cup) (1)
as §3, §4, §7, §6

Row | Structure (SMILES) | Attraction Rate ([1]; Amount 0.01 μg) | Attraction Rate ([1]; Amount 0.1 μg) | Attraction Rate ([1]; Amount 1 μg) | Attraction Rate ([1]; Amount 10 μg) | Attraction Rate ([1]; Amount 100 μg) | Attraction Rate ([2]; 100 μg) | Attraction Rate ([3]; 100 μg) | Attraction Rate (Tetranychus urticae) | Attraction Rate (Drosophila melanogaster) | Attraction Rate (Thrips tabaci) | Attraction Rate ([2]; 1 μg) | Attraction Rate ([3]; 1 μg) | Attraction Rate ([2]; 10 μg) | Attraction Rate ([3]; 10 μg)
1 | CC(=O)c1ccccc1N [o-aminoacetophenone] | 3 | 17 | 23 | 30 | 36 | 36 | 36 | 38 | 13 | – | – | – | – | –
2 | COc1ccc(C=O)cc1 [p-anisaldehyde] | 17 | 23 | 23 | 30 | 36 | 36 | 36 | – | 3 | 10 | – | – | – | –
3 | COC(=O)c1ccccc1C [Methyl o-toluate, methyl o-toluate] | 3 | 13 | 17 | 20 | 23 | 23 | 23 | 15 | 3 | – | – | – | – | –
4 | CC(C)=CCC/C(C)=C\CO [Nerol, nerol] | 10 | 33 | 33 | 30 | 27 | – | – | 5 | 3 | – | 33 | 33 | – | –
5 | COC(=O)c1ccccc1N [Methyl anthranilate, methyl anthranilate] | 10 | 13 | 13 | 17 | 20 | 20 | 20 | – | 8 | 10 | – | – | – | –
6 | CC(C)=CCC/C(C)=C/CO [Geraniol, geraniol] | 10 | 17 | 30 | 33 | 27 | – | – | – | 23 | 0 | – | – | 33 | 33
7 | COC(=O)c1ccccc1 [Methyl benzoate, methyl benzoate] | 7 | 23 | 27 | 33 | 36 | 36 | 46 | 25 | 8 | – | – | – | – | –
8 | O=Cc1ccccc1 [Benzaldehyde, benzaldehyde] | 23 | 33 | 36 | 30 | 27 | – | – | 32 | 3 | – | 36 | 36 | – | –
9 | COC(=O)c1cccc(N)c1 [Methyl m-aminobenzoate, methyl m-aminobenzoate] | 3 | 10 | 27 | 33 | 40 | 40 | 40 | – | 8 | 0 | – | – | – | –
10 | CC(C)=CCCC(C)CCO (centres unmarked) [Citronellol, citronellol] | 7 | 20 | 20 | 20 | 23 | 23 | 23 | – | 3 | – | – | – | – | –
11 | CCCCCCC(C=O)=Cc1ccccc1 [α-hexylcinnamaldehyde] | 13 | 27 | 33 | 30 | 30 | – | – | – | 8 | 7 | 33 | 33 | – | –

Source: patent US20160227776A1, “COMPOSITION CONTAINING ATTRACTANT OF NOXIOUS ARTHROPOD COMPRISING PLANT-DERIVED COMPONENT AND ANALOGUE OF SAME” (KYOYU AGRI CO., LTD., priority 2013, published 2016)
